Source: patent publication US8354539B2, “Indole derivatives as IKK2 inhibitors” (Glaxo Group Limited, priority 2009, dated 2013)

Tests used:
[1] = molecular target: T1, Recombinant human IKKβ (IKK2) (Homo sapiens, UniProt O14920); test: IKK2 assay (TR-FRET); format: biochemical; conditions: read-out: pIC50 potency against IKK2 (converted)
T1 construct: Recombinant human IKKβ (residues 5-756); GST (C); made in house
T1 sequence (O14920 5-756): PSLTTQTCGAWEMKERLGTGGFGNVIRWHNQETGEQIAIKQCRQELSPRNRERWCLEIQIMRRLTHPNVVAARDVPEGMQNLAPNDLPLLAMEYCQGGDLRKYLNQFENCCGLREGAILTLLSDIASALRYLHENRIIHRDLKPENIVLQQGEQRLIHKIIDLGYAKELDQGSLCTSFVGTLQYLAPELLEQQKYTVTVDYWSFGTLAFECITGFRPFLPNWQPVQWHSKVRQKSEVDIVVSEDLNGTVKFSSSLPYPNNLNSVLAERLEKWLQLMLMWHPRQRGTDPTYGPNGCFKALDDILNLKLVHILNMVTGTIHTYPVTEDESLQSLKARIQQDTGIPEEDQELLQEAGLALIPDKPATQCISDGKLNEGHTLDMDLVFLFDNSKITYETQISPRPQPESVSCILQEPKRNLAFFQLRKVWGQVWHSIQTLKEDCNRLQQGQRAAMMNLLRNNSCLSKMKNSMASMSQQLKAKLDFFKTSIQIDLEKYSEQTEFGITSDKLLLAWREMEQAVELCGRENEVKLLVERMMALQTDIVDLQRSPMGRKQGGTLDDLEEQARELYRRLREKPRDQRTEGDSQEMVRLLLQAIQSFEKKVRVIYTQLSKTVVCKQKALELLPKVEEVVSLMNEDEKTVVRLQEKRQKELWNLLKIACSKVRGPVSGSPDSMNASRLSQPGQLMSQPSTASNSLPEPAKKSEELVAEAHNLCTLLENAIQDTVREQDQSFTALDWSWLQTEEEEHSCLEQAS
Method: Recombinant human IKKβ (residues 5-756) was expressed in baculovirus as a C-terminal GST-tagged fusion protein, and its activity was assessed using a time-resolved fluorescence resonance energy transfer (TR-FRET) assay. Briefly, IKKβ (0.5-4 nM final concentration) diluted in assay buffer (50 mM HEPES, 10 mM MgCl2, 1 mM CHAPS pH 7.4 with 1 mM DTT and 0.01% w/v BSA) was added to wells containing various concentrations of compound or DMSO vehicle (1.7% v/v final). The reaction was initiated by the addition of GST-IkappaBalpha substrate (25 nM final)/ATP (1 μM final), in a total volume of 6 μl. The reaction was incubated for 15 mins at room temperature, then terminated by the addition of 3 μl of 50 mM EDTA in buffer (100 mM HEPES pH 7.4, 150 mM NaCl and 0.1% w/v BSA) containing antiphosphoserine-IkappaBalpha-32/36 monoclonal antibody clone 12C2 (Cell Signalling Technology, Beverly Mass., USA) labelled with W-1024 europium chelate (Wallac O Y, Turku, Finland), and an APC-labelled anti-GST antibody (Prozyme, San Leandro, Calif., USA). The reaction was further incubated for 60 mins at room temperature and the degree of phosphorylation of GST-IkappaBalpha measured using a Rubystar plate reader (BMG Instruments, Aylesbury, UK) as a ratio of specific 665 nm energy transfer signal to reference europium 620 nm signal.

LPS induced neutrophilia = test: Inhaled LPS induced neutrophilia in the male CD rat; format: in vivo; conditions: dose of 300 ug/kg i.t.
Method: Male CD rats (150-250 g) were anaesthetised with isoflurane (5%, 2 L/min O2, 1 L/min […]) and positioned on their back on a dosing table at a 35 degree angle, with a metal rod placed under their incisors to keep them in place. A light was angled against the outside of the throat to highlight the trachea. The mouth was opened to visualise the upper opening of the airway and a portex cannula was introduced into the trachea via a blunt dosing needle. 200 ul of compound formulation was then injected into the airways. After dosing, animals were placed in a supine position during recovery from anaesthesia.
Approximately thirty minutes following dosing of compound or vehicle, the rats were placed into a cloud chamber and exposed to an aerosol of lipopolysaccharide, generated from a 150 ug/ml solution for 15 min.
Four hours following LPS challenge the animals were culled with an overdose of sodium pentobarbitone given intraperitoneally. The trachea was exposed and a small incision made, into which a tube was inserted towards the lungs. The lungs were then washed with 3 times with 5 mls heparinised (10 U/ml) PBS.
The bronchoalveolar lavage fluid (BALF) samples were centrifuged at 1300 rpm for 7 minutes. […] The total cells were also counted from the resuspension using a Sysmex counter. From these two counts, the total numbers of neutrophils in the BALF were determined.

IC50 [1]: < 100 nM
Compound: COCCS(=O)(=O)N1CCC(c2c[nH]c3c(C(N)=O)cc(-c4ccc5c(c4)CN(C(C)C)C5)cc23)CC1 [Compound of formula (I), 5-[2-(1-methylethyl)-2,3-dihydro-1H-isoindol-5-yl]-3-(1-{[2-(methyloxy)ethyl]sulfonyl}-4-piperidinyl)-1H-indole-7-carboxamide]
inhibition of LPS induced neutrophilia (LPS induced neutrophilia): greater than 75%
